In brackets after ≈: the same amount, converted by molar mass.
Experiments:
[1] = test system: Staphylococcus aureus-SMITH (GC 4543); assay: acute lethal infection in mice; format: in vivo; conditions: acute lethal infection, female CD-1 mice, intraperitoneal challenge, intravenous 30 min. after infection, 7 day survival
Method: Methods for in Vivo Antibacterial Evaluation
The therapeutic effects of glycopeptide antibiotics of Formula I are determined against acute lethal infections with S. aureus (strain Smith), a penicillin resistant strain of S. pneumoniae (strain GC 1894), and a vancomycin resistant strain of E. fecalis (strain GC 6189 and GC 2246). Female mice, CD-1 (Charles River Laboratories), 20+/−2 gm, are challenged by intraperitoneal injection of sufficient bacteria (suspended in /trypticase Soy Broth or hog gastric mucin) to kill non-treated controls within 24-48 hr. Antibacterial agents, contained in 0.2 mL of saline or 5% dextrose solution, are administered intravenously 30 min. after infection. Five mice are treated at each dose level. The 7 day survival ratios from 3 separate tests are pooled for calculation of median effective dose (ED50).

[2] = test system: Staphylococcus sp.; assay: in vitro antibacterial evaluation, MIC by broth dilution; format: cell-based; conditions: broth dilution, 18 hours at 35° C.
Summary of the method: (§1)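 MIC = lowest antibiotic concentration preventing visible growth; inoculum 5×10^5 CFU/mL; drug range 64-0.06 μg/mL; Muller-Hinton II […]; NCCLS M7-A2 guidance.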

[3] = test system: Streptococcus sp.; assay: as above; format: cell-based; conditions: broth dilution, 18 hours at 35° C.
Summary of the method: as §1

[4] = test system: Escherichia coli; assay: as above; format: cell-based; conditions: 18 hours at 35° C.
Summary of the method: as §1

[5] = test system: Enterococcus sp.; assay: as above; format: cell-based; conditions: broth dilution, 18 hours at 35° C.
Summary of the method: as §1

In the case of COc1ccc(CC2OCC3OC(OC4C(CO)OC(Oc5ccc(CC6NC(=O)C(C(C)c7ccccc7)NC(=O)CNC(=O)C(CO)NC(=O)C(C(O)C7CNC(=N)N7C7OC(CO)C(O)C(O)C7O)NC(=O)C(C(O)C7CNC(=N)N7)NC6=O)cc5)C(O)C4O)C(O)C(O)C3O2)cc1 (stereo not drawn) [Example 103, Cyco[glycyl-β-methylphenylalanyl-O-[4-O-[4,6-O-(4-methoxyphenethylidene)hexopyranosyl]-hexopyranosyl]tyrosyl-3-(2-iminoimidazolidin-4-yl)seryl-3-(3-hexopyranosyl-2-iminoimidazolidin-4-yl)serylseryl]], the median effective dose (ED50), Staphylococcus aureus-SMITH (GC 4543) [1] is reported as 0.28 mg/kg, the “MIC Coagulase Negative Staphylococcus (GC 4547)” value [2] is reported as 2 µg/mL (≈ 1.4 µM) and the “MIC Coagulase Negative Staphylococcus (GC 4548)” value [2] is reported as 1 µg/mL (≈ 0.701 µM). For the same compound, the “MIC Coagulase Negative Staphylococcus (GC 4549)” value [2] was 1 µg/mL (≈ 0.701 µM), the “MIC Coagulase Negative Staphylococcus (GC 4551)” value [2] was 2 µg/mL (≈ 1.4 µM) and the “MIC Coagulase Negative Staphylococcus (GC 6257)” value [2] was 1 µg/mL (≈ 0.701 µM). The “MIC Staphylococcus aureus (ATCC 29213)” value [2] was 2 µg/mL (≈ 1.4 µM), the “MIC Staphylococcus aureus (GC 1131)” value [2] was 2 µg/mL (≈ 1.4 µM) and the “MIC Staphylococcus aureus (GC 3051)” value [2] was 1 µg/mL (≈ 0.701 µM). The “MIC Staphylococcus aureus (GC 3053)” value [2] was 2 µg/mL (≈ 1.4 µM), the “MIC Staphylococcus aureus (GC 4541)” value [2] was 2 µg/mL (≈ 1.4 µM) and the “MIC Staphylococcus aureus (GC 4542)” value [2] was 2 µg/mL (≈ 1.4 µM). The “MIC Staphylococcus aureus (GC 4544)” value [2] was 2 µg/mL (≈ 1.4 µM), the “MIC Staphylococcus aureus (GC 4545)” value [2] was 1 µg/mL (≈ 0.701 µM) and the “MIC Staphylococcus aureus-SMITH (GC 4543)” value [2] was 1 µg/mL (≈ 0.701 µM). The “MIC Staphylococcus haemolyticus (GC 4546)” value [2] was 1 µg/mL (≈ 0.701 µM), the “MIC Staphylococcus haemolyticus (GC 4546)” value ([2]; strain GC 4546) was 1 µg/mL (≈ 0.701 µM) and the “MIC Coagulase Negative Staphylococcus (GC 4547)” value ([2]; strain GC 4547) was 2 µg/mL (≈ 1.4 µM). For the same compound, the “MIC Coagulase Negative Staphylococcus (GC 4548)” value ([2]; strain GC 4548) was 1 µg/mL (≈ 0.701 µM), the “MIC Coagulase Negative Staphylococcus (GC 4549)” value ([2]; strain GC 4549) was 1 µg/mL (≈ 0.701 µM) and the “MIC Coagulase Negative Staphylococcus (GC 4551)” value ([2]; strain GC 4551) was 2 µg/mL (≈ 1.4 µM). For the same compound, the “MIC Coagulase Negative Staphylococcus (GC 6257)” value ([2]; strain GC 6257) was 1 µg/mL (≈ 0.701 µM), the “MIC Staphylococcus aureus-SMITH (GC 4543)” value ([2]; strain SMITH GC 4543) was 1 µg/mL (≈ 0.701 µM) and the “MIC Staphylococcus aureus (ATCC 29213)” value ([2]; strain ATCC 29213) was 2 µg/mL (≈ 1.4 µM). The “MIC Staphylococcus aureus (GC 1131)” value ([2]; strain GC 1131) was 2 µg/mL (≈ 1.4 µM), the “MIC Staphylococcus aureus (GC 3051)” value ([2]; strain GC 3051) was 1 µg/mL (≈ 0.701 µM) and the “MIC Staphylococcus aureus (GC 3053)” value ([2]; strain GC 3053) was 2 µg/mL (≈ 1.4 µM). The “MIC Staphylococcus aureus (GC 4541)” value ([2]; strain GC 4541) was 2 µg/mL (≈ 1.4 µM), the “MIC Staphylococcus aureus (GC 4542)” value ([2]; strain GC 4542) was 2 µg/mL (≈ 1.4 µM) and the “MIC Staphylococcus aureus (GC 4544)” value ([2]; strain GC 4544) was 2 µg/mL (≈ 1.4 µM). For the same compound, the “MIC Staphylococcus aureus (GC 4545)” value ([2]; strain GC 4545) was 1 µg/mL (≈ 0.701 µM), the “MIC Streptococcus agalactiae (GC 4564)” value ([3]; Streptococcus agalactiae (GC 4564)) was 0.5 µg/mL (≈ 0.35 µM) and the “MIC Streptococcus pneumoniae (ATCC 6301)” value ([3]; Streptococcus pneumoniae (ATCC 6301)) was 0.12 µg/mL (≈ 0.0841 µM). The “MIC Streptococcus pneumoniae (GC 1894)” value ([3]; Streptococcus pneumoniae (GC 1894)) was 0.12 µg/mL (≈ 0.0841 µM), the “MIC Streptococcus pneumoniae (GC 4565)” value ([3]; Streptococcus pneumoniae (GC 4565)) was 0.12 µg/mL (≈ 0.0841 µM) and the “MIC Streptococcus pyogenes (GC 4563)” value ([3]; Streptococcus pyogenes (GC 4563)) was 0.25 µg/mL (≈ 0.175 µM). The “MIC Streptococcus pneumoniae (ATCC 6301)” value ([3]; strain ATCC 6301) was 0.12 µg/mL (≈ 0.0841 µM), the “MIC Streptococcus pneumoniae (GC 1894)” value ([3]; strain GC 1894) was 0.12 µg/mL (≈ 0.0841 µM) and the “MIC Streptococcus pyogenes (GC 4563)” value ([3]; strain GC 4563) was 0.25 µg/mL (≈ 0.175 µM). The “MIC Streptococcus agalactiae (GC 4564)” value ([3]; strain GC 4564) was 0.5 µg/mL (≈ 0.35 µM), the “MIC Streptococcus pneumoniae (GC 4565)” value ([3]; strain GC 4565) was 0.12 µg/mL (≈ 0.0841 µM) and the “MIC Escherichia coli (ATCC 25922)” value ([4]; strain ATCC 25922) was 64 µg/mL (≈ 44.8 µM). For the same compound, the “MIC Escherichia coli (GC 4559)” value ([4]; strain GC 4559) was 64 µg/mL (≈ 44.8 µM), the “MIC Escherichia coli (GC 4560)” value ([4]; strain GC 4560) was 1 µg/mL (≈ 0.701 µM) and the “MIC Enterococcus avium (GC 4558)” value ([5]; Enterococcus avium (GC 4558)) was 8 µg/mL (≈ 5.6 µM). The “MIC Enterococcus faecalis (ATCC 29212)” value ([5]; Enterococcus faecalis (ATCC 29212)) was 4 µg/mL (≈ 2.8 µM), the “MIC Enterococcus faecalis (GC 2242)” value ([5]; Enterococcus faecalis (GC 2242)) was 4 µg/mL (≈ 2.8 µM) and the “MIC Enterococcus faecalis (GC 2691)” value ([5]; Enterococcus faecalis (GC 2691)) was 8 µg/mL (≈ 5.6 µM). The “MIC Enterococcus faecalis (GC 3059)” value ([5]; Enterococcus faecalis (GC 3059)) was 8 µg/mL (≈ 5.6 µM), the “MIC Enterococcus faecalis (GC 4552)” value ([5]; Enterococcus faecalis (GC 4552)) was 8 µg/mL (≈ 5.6 µM) and the “MIC Enterococcus faecalis (GC 4553)” value ([5]; Enterococcus faecalis (GC 4553)) was 8 µg/mL (≈ 5.6 µM). For the same compound, the “MIC Enterococcus faecalis (GC 4554)” value ([5]; Enterococcus faecalis (GC 4554)) was 8 µg/mL (≈ 5.6 µM), the “MIC Enterococcus faecalis (GC 6189)” value ([5]; Enterococcus faecalis (GC 6189)) was 4 µg/mL (≈ 2.8 µM) and the “MIC Enterococcus faecium (GC 2243)” value ([5]; Enterococcus faecium (GC 2243)) was 4 µg/mL (≈ 2.8 µM). For the same compound, the “MIC Enterococcus faecium (GC 4556)” value ([5]; Enterococcus faecium (GC 4556)) was 4 µg/mL (≈ 2.8 µM), the “MIC Enterococcus faecium (GC 4557)” value ([5]; Enterococcus faecium (GC 4557)) was 2 µg/mL (≈ 1.4 µM) and the “MIC Enterococcus faecalis (ATCC 29212)” value ([5]; strain ATCC 29212) was 4 µg/mL (≈ 2.8 µM). For the same compound, the “MIC Enterococcus faecalis (GC 2242)” value ([5]; strain GC 2242) was 4 µg/mL (≈ 2.8 µM), the “MIC Enterococcus faecium (GC 2243)” value ([5]; strain GC 2243) was 4 µg/mL (≈ 2.8 µM) and the “MIC Enterococcus faecalis (GC 2691)” value ([5]; strain GC 2691) was 8 µg/mL (≈ 5.6 µM). For the same compound, the “MIC Enterococcus faecalis (GC 3059)” value ([5]; strain GC 3059) was 8 µg/mL (≈ 5.6 µM), the “MIC Enterococcus faecalis (GC 4552)” value ([5]; strain GC 4552) was 8 µg/mL (≈ 5.6 µM) and the “MIC Enterococcus faecalis (GC 4553)” value ([5]; strain GC 4553) was 8 µg/mL (≈ 5.6 µM). For the same compound, the “MIC Enterococcus faecalis (GC 4554)” value ([5]; strain GC 4554) was 8 µg/mL (≈ 5.6 µM), the “MIC Enterococcus faecium (GC 4556)” value ([5]; strain GC 4556) was 4 µg/mL (≈ 2.8 µM) and the “MIC Enterococcus faecium (GC 4557)” value ([5]; strain GC 4557) was 2 µg/mL (≈ 1.4 µM). For the same compound, the “MIC Enterococcus avium (GC 4558)” value ([5]; strain GC 4558) was 8 µg/mL (≈ 5.6 µM) and the “MIC Enterococcus faecalis (GC 6189)” value ([5]; strain GC 6189) was 4 µg/mL (≈ 2.8 µM).
